Data taken from the supplement of paper PMC7108870.

Key:
HEK293sieSTAT3(Y640F) [1] = experiment: drug sensitivity score (DSS), cytotoxicity CellTox Green (DSS (dimensionless)); higher = more cytotoxic; extreme values may be limits of the assay; settings: 72 h; STAT3 variant: Y640F (constitutively active)
Outline: (§1)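 HEK293 cells bearing a STAT3-dependent luciferase reporter and overexpressing wild-type or mutant STAT3 were incubated with compounds at 5 concentrations in 10-fold steps for 72 hours at 37°C and 5% CO2. CellTox Green fluorescence and then CellTiter-Glo luminescence were measured, and values were normalised to negative and positive control wells. In Breeze, a drug sensitivity score was computed from the dose-response curve area.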

HEK293sieSTAT3(wt) [2] = experiment: as above; settings: 72 h; STAT3 variant: wild type
Outline: as §1

HEK293sieSTAT3(Y640F) [3] = experiment: drug sensitivity score (DSS), viability CellTiter-Glo (DSS (dimensionless)); higher = more growth inhibition; extreme values may be limits of the assay; settings: 72 h; STAT3 variant: Y640F (constitutively active)
Outline: as §1

HEK293sieSTAT3(wt) [4] = experiment: as above; settings: 72 h; STAT3 variant: wild type
Outline: as §1

| SMILES | drug sensitivity score (HEK293sieSTAT3(Y640F) [1]) | drug sensitivity score (HEK293sieSTAT3(wt) [2]) | drug sensitivity score (HEK293sieSTAT3(Y640F) [3]) | drug sensitivity score (HEK293sieSTAT3(wt) [4]) |
| --- | --- | --- | --- | --- |
| COc1ccc(C[C@H](NC(=O)[C@H](C)NC(=O)CN2CCOCC2)C(=O)N[C@@H](Cc2ccccc2)C(=O)C2(C)CO2)cc1 (stereo in doubt) [ONX-0914] (top concentration tested 10000 nM) | 18.6 | 19.9 | 19.9 | 21.7 |
| Cc1ccc(C(=O)N(CCCN)[C@@H](c2oc3cc(Cl)ccc3c(=O)c2Cc2ccccc2)C(C)C)cc1 (top concentration tested 100 nM) | 0.83 | 8.48 | 10.7 | 12.3 |
| CCn1cc(-c2ccnc3[nH]c(-c4cccc(CN(C)C)c4)cc23)c(-c2ccc(NC(=O)N(C)C)cc2)n1 (top concentration tested 1000 nM) | 0 | 0.19 | 4.73 | 5.64 |
| CN1CCC(COc2cnc(-c3cccc(Cn4nc(-c5cccc(C#N)c5)ccc4=O)c3)nc2)CC1 (top concentration tested 1000 nM) | 0 | 0 | 0 | 0 |
| CNC(=O)c1ccc(C)c(-n2c(C)cc(OCc3ccc(F)cc3F)c(Br)c2=O)c1 (top concentration tested 1000 nM) | 0 | 0 | 4.08 | 3.62 |
| C[C@@H](Oc1ccc2[nH]nc(/C=C/c3cnn(CCO)c3)c2c1)c1c(Cl)cncc1Cl (top concentration tested 1000 nM) | 0 | 0 | 6.64 | 5.39 |
| C[C@H]1Oc2cc(cnc2N)-c2c(nn(C)c2C#N)CN(C)C(=O)c2ccc(F)cc21 (top concentration tested 1000 nM) | 0 | 0 | 5.03 | 1.84 |
| O=C(NOC[C@H](O)CO)c1ccc(F)c(F)c1Nc1ccc(I)cc1F (top concentration tested 1000 nM) | 0 | 0 | 0 | 0 |
| CCOc1ccn(-c2ccc(F)cc2)c(=O)c1C(=O)Nc1ccc(Oc2ccnc(N)c2Cl)c(F)c1 (top concentration tested 2500 nM) | 0 | 0 | 0.75 | 4.83 |
| Cc1cccc(CC(=O)N2CCc3c2ccc(-c2cn(C)c4ncnc(N)c24)c3F)n1 (top concentration tested 2500 nM) | 0 | 0.89 | 0 | 0 |
| OCCn1cc(-c2cnc3nnn(Cc4ccc5ncccc5c4)c3n2)cn1 (top concentration tested 2500 nM) | 0 | 0.12 | 1.78 | 0 |
| CNC(=O)c1ccccc1Nc1nc(Nc2ccc3c(c2OC)CCC[C@H](N2CCN(CCO)CC2)C3)ncc1Cl (top concentration tested 5000 nM) | 0 | 6.35 | 7.82 | 9.3 |
| Cc1ncc(Cl)cc1NCc1ccc(C(=O)N[C@@H](CC2CCCC2)C(=O)NC2CC2)s1 (top concentration tested 5000 nM) | 0.4 | 0 | 4.24 | 0.63 |
| CC(=O)NCC(=O)N1[C@@H]2CC[C@H]1c1ccc(Nc3ncc(C(F)(F)F)c(NC4CCC4)n3)cc12 (top concentration tested 10000 nM) | 1.98 | 8.9 | 13.2 | 16.8 |
| CC(C)(C)C[C@@H]1N[C@@H](C(=O)N[C@H]2CC[C@H](O)CC2)[C@H](c2cccc(Cl)c2F)[C@]12C(=O)Nc1cc(Cl)ccc12 (top concentration tested 10000 nM) | 2.22 | 2.72 | 3.68 | 4.33 |
| CC(C)CC(=O)Nc1n[nH]c2c1CN(C(=O)C1CCN(C)CC1)C2(C)C (top concentration tested 10000 nM) | 4.64 | 19 | 12.4 | 13.4 |
| CC(C)Oc1ccc(C(=O)N[C@H](CNC(=O)CN(C)C)Cc2ccc(-c3cn4cccc([C@H](C)O)c4n3)cc2)cc1Cl (top concentration tested 10000 nM) | 2.45 | 11.4 | 14.7 | 15.3 |
| CCNC(=O)C[C@@H]1N=C(c2ccc(Cl)cc2)c2cc(OC)ccc2-n2c(C)nnc21 (top concentration tested 10000 nM) | 0.87 | 5.42 | 9.51 | 4.81 |
| CCn1c(-c2nonc2N)nc2c(C#CC(C)(C)O)ncc(OC[C@H]3CCCNC3)c21 (top concentration tested 10000 nM) | 0.19 | 1.28 | 13.7 | 16.9 |
| CCn1c(C(=O)N(C2CC2)C2CC2)cc2c3c(ncn3C)c(Nc3cc(C)n(C)n3)nc21 (top concentration tested 10000 nM) | 0 | 0 | 0.09 | 0.76 |
| CN(c1ncccc1CNc1nc(Nc2ccc3c(c2)CC(=O)N3)ncc1C(F)(F)F)S(C)(=O)=O (top concentration tested 10000 nM) | 1.32 | 7.18 | 8.82 | 12 |
| CNc1nc(-c2ccc3c(N)n[nH]c3c2)cc(N2C[C@@H](C(=O)NC3CCCCC3)CC[C@H]2C)n1 (top concentration tested 10000 nM) | 0.35 | 0 | 1.37 | 4.33 |
| CNc1ncc2cc(-c3cc(NC(=O)NCCC(C)(C)C)c(F)cc3C)c(C)nc2n1 (top concentration tested 10000 nM) | 0 | 0.9 | 5.64 | 3.99 |
